{"source": "patent US20240246934A1", "about": "“QUINAZOLINE-BASED COMPOUND, COMPOSITION, AND APPLICATION OF QUINAZOLINE-BASED COMPOUND” (BEIJING SCITECH-MQ PHARMACEUTICALS LIMITED, priority 2021, published 2024)", "key": {"NCI-N87 cells": {"system": "NCI-N87 cells", "assay": "Inhibition of cell proliferation, CTG method, NCI-N87", "type": "cell-based", "conditions": "Homo sapiens, 72 hours, read-out: hNCI-N87 IC50", "from_the_text": "(§1) The present application examined the in vitro anti-proliferative activity of the compounds of the present disclosure against in vitro cultured BT474, NCI-N87, Ba/F3-EGFR-VIII and Ba/F3 HER2 A775_G776insYVMA and Ba/F3 EGFR D770_N771insSVD cell lines by CTG method.\n(§2) Reagents and consumables: RPMI1640 (ThermoFisher, Cat. No. C11875500BT); fetal bovine serum (Hyclone, Cat. No. SV30087.03); 0.25% trypsin-EDTA (ThermoFisher, Cat. No. 25200-072); penicillin-streptomycin (Hyclone, Cat. No. SV30010); DMSO (Amresco, Cat. No. 0231-500ML); CTG assay kit (Promega, Cat. No. G924C); 96-well plate (Corning, Cat. No. 3603); multifunctional plate reader (Perkin Elmer, Cat. No. Envision)\n(§3) Cell lines: BT474 (from the cell bank of Chinese Academy of Sciences), NCI-N87 (from ATCC), Ba/F3-EGFR-VIII, Ba/F3 HER2 A775_G776insYVMA and Ba/F3 EGFR D770_N771insSVD (all from KYinno Biotechnology (Beijing) Co., Ltd.); all of the above cells were cultured with RPMI1640 medium containing 10% fetal bovine serum, 100 U/mL penicillin, and 100 μg/mL streptomycin in the culture process.\n(§4) 1. The assay compound was dissolved with DMSO to form a stock solution and a gradient dilution was performed, followed by dilution with the corresponding medium to obtain a solution with 5-fold working concentration.\n(§5) 2. Cells in logarithmic growth phase were adjusted to specific cell densities by dilution with culture medium, and 80 μL of cell suspension was added to a 96-well plate, such that plating densities of cells of BT474, NCI-N87, Ba/F3-EGFR-VIII, Ba/F3 HER2 A775_G776insYVMA and Ba/F3 EGFR D770_N771insSVD were all 3000 cells/well. The cells of Ba/F3-EGFR-VIII, Ba/F3 HER2 A775_G776insYVMA and Ba/F3 EGFR D770_N771insSVD were used directly in the next step (treatment with compound), whereas the BT474 and NCI-N87 needed to be cultured overnight in a 37° C., 5% carbon dioxide gas incubator to adhere to the wall, and then treated with compounds.\n(§6) 3. 20 μL of compound solution was added to each well of the 96-well plate that had been inoculated with cells. The highest concentration of the assayed compound was 10 μM, 4-fold serial dilution, a total of 9 concentrations, and duplicate wells. A control group without compound was also set up.\n(§7) 4. The cells were cultured for another 72 hours, and then cell viability was detected by CTG assay kit. Signal values were read with a multifunctional plate reader (Perkin Elmer). GraphPad Prism software was used to create a dose-response curve and IC50 was calculated."}, "Ba/F3-EGFR-VIII cells": {"target": "Ba/F3-EGFR-VIII cells (Homo sapiens, UniProt P00533, DELINS30-297G, cells depend on it)", "assay": "Inhibition of cell proliferation, CTG method, Ba/F3-EGFR-VIII", "type": "cell-based", "conditions": "72 hours, read-out: Ba/F3 EGFRvIII IC50", "from_the_text": "as §1, §2, §3\n1. […]\nas §7"}, "EGFR^WT kinase": {"target": "EGFR^WT kinase (Homo sapiens, UniProt P00533)", "sequence (P00533 25-1210)": "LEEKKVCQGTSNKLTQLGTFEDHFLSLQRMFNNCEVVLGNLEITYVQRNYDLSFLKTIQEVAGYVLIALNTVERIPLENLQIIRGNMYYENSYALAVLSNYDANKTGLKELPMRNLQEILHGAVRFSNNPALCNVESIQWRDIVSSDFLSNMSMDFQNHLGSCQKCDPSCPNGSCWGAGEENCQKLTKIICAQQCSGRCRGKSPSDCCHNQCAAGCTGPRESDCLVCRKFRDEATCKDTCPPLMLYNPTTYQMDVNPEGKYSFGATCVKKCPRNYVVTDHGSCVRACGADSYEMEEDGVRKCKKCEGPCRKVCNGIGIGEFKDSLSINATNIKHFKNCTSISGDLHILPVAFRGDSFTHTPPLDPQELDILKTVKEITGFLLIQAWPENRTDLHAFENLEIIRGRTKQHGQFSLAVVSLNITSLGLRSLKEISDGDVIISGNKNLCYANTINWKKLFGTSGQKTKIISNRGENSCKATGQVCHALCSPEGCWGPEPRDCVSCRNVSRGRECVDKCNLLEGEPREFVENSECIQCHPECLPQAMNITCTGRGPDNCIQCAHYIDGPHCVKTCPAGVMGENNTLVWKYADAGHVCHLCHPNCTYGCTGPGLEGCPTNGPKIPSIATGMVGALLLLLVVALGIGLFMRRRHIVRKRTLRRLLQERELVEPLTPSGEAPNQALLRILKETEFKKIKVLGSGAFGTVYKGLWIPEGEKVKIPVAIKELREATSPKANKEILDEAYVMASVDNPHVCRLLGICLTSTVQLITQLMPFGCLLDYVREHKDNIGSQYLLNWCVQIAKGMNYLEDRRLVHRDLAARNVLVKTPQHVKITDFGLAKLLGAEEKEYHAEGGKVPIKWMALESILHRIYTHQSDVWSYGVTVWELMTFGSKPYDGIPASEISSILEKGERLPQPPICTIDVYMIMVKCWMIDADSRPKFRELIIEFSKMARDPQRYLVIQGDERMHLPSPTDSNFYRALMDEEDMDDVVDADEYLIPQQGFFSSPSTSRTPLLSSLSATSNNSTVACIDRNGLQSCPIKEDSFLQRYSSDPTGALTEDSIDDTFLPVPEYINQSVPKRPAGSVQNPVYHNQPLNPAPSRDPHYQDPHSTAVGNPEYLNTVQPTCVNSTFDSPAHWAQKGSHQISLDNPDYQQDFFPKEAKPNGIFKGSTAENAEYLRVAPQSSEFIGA", "assay": "EGFR^WT kinase assay (ULight/PT66 TR-FRET)", "type": "biochemical", "summary_of_the_method": "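Enzyme preincubated 5 min with compound (11-point 3-fold series, duplicate), then ULight-JAK-1 (Tyr1023) peptide and ATP added at 4× stocks of 400 nM and 600 μM; 120 min reaction at room temperature. PT66 antibody TR-FRET read after 60 min; IC50 fitted from inhibition rates.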"}, "HER2 kinase": {"target": "T1, HER2 kinase (Homo sapiens, UniProt P04626)", "T1 construct": "purchased Carna Biosciences 08-016", "T1 sequence (P04626 23-1255)": "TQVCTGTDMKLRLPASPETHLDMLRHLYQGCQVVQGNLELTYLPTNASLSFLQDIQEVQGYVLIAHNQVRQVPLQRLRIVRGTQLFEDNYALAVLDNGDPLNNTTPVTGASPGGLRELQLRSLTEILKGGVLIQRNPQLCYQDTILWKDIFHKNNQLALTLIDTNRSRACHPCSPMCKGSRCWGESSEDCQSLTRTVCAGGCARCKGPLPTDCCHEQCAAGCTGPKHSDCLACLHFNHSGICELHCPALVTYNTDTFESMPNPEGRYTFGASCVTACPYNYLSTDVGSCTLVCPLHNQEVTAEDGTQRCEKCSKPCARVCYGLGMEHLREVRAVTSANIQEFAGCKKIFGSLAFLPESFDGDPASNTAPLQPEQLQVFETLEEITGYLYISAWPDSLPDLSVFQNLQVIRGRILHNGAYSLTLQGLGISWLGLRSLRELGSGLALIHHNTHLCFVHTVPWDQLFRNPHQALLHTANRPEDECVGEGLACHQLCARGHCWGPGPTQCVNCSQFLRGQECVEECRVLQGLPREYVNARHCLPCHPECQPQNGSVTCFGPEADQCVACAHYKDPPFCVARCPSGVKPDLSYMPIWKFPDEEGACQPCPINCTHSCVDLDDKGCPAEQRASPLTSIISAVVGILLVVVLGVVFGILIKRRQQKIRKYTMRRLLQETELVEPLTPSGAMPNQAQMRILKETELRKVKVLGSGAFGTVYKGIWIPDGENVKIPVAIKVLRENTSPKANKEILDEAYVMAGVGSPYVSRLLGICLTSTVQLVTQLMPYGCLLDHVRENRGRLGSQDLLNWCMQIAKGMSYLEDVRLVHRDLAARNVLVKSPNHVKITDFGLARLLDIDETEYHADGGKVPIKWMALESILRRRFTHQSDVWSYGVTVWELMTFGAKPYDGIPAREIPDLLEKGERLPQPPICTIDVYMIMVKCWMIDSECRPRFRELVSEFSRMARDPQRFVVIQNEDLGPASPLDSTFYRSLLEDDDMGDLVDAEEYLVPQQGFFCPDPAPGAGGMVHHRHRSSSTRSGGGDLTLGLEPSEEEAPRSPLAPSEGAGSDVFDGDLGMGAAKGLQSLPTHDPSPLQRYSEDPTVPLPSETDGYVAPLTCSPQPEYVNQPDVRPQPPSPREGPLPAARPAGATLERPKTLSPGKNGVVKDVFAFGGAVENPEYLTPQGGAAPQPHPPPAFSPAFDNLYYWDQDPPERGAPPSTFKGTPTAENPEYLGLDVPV", "assay": "HER2 kinase assay (ULight/PT66 TR-FRET)", "type": "biochemical", "summary_of_the_method": "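HER2 kinase preincubated 5 min with compounds (11-point 3-fold series, duplicates), then reacted 120 min at room temperature with ATP and ULight-poly GT peptide, each prepared at 4× working concentration (40 μM ATP, 400 nM substrate, 40 nM kinase). PT66 antibody added for 60 min, TR-FRET read; IC50 from inhibition curves.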"}, "[1]": {"target": "Ba/F3 HER2 A775_G776insYVMA cells (Homo sapiens, UniProt P04626, DUP772-775, cells depend on it)", "sequence (P04626 with tags, fused parts or gaps DUP772-775)": "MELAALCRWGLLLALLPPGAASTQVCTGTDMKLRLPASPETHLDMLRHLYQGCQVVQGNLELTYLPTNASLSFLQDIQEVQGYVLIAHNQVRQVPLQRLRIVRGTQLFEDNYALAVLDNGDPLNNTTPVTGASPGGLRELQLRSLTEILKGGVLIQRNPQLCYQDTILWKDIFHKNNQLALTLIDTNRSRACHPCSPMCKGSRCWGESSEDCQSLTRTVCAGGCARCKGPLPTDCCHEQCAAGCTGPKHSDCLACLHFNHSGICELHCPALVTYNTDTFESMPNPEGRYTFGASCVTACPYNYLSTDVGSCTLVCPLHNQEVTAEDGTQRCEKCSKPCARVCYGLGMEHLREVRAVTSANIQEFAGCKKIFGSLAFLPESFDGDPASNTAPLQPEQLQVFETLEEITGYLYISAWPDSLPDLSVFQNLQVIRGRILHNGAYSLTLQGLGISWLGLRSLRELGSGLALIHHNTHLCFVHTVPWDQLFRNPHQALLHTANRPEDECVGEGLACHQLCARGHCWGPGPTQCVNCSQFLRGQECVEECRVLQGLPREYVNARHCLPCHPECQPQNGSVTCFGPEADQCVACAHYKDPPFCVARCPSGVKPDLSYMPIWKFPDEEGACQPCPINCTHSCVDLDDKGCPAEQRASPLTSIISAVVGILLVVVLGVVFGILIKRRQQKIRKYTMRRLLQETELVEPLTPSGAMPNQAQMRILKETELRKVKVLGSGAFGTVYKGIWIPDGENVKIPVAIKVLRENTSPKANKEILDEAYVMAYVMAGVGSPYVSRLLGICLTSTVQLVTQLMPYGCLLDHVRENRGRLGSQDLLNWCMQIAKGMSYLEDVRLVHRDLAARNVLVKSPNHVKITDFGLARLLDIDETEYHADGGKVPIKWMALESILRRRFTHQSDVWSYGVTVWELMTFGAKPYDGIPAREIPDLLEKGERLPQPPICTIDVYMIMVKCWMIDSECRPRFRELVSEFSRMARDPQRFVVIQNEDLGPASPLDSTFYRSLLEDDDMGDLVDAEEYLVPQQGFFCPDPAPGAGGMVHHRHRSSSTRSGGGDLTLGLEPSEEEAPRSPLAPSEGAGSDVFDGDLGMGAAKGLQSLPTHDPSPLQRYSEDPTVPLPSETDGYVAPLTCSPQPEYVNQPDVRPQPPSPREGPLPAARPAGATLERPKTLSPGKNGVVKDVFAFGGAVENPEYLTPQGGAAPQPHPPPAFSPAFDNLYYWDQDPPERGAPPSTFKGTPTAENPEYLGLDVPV", "assay": "Inhibition of cell proliferation, CTG method, Ba/F3 HER2 A775_G776insYVMA", "type": "cell-based", "conditions": "72 hours, read-out: Ba/F3 HER2 A775-G776insYVMA IC50", "summary_of_the_method": "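Ba/F3 HER2 A775_G776insYVMA cells in RPMI1640 with 10% FBS were plated at 3000 cells/well and treated directly with compound (top 10 μM, 4-fold, 9 concentrations, duplicates).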"}, "[2]": {"target": "Ba/F3 EGFR D770_N771insSVD cells (Homo sapiens, UniProt P00533, DUP768-770, cells depend on it)", "sequence (P00533 with tags, fused parts or gaps DUP768-770)": "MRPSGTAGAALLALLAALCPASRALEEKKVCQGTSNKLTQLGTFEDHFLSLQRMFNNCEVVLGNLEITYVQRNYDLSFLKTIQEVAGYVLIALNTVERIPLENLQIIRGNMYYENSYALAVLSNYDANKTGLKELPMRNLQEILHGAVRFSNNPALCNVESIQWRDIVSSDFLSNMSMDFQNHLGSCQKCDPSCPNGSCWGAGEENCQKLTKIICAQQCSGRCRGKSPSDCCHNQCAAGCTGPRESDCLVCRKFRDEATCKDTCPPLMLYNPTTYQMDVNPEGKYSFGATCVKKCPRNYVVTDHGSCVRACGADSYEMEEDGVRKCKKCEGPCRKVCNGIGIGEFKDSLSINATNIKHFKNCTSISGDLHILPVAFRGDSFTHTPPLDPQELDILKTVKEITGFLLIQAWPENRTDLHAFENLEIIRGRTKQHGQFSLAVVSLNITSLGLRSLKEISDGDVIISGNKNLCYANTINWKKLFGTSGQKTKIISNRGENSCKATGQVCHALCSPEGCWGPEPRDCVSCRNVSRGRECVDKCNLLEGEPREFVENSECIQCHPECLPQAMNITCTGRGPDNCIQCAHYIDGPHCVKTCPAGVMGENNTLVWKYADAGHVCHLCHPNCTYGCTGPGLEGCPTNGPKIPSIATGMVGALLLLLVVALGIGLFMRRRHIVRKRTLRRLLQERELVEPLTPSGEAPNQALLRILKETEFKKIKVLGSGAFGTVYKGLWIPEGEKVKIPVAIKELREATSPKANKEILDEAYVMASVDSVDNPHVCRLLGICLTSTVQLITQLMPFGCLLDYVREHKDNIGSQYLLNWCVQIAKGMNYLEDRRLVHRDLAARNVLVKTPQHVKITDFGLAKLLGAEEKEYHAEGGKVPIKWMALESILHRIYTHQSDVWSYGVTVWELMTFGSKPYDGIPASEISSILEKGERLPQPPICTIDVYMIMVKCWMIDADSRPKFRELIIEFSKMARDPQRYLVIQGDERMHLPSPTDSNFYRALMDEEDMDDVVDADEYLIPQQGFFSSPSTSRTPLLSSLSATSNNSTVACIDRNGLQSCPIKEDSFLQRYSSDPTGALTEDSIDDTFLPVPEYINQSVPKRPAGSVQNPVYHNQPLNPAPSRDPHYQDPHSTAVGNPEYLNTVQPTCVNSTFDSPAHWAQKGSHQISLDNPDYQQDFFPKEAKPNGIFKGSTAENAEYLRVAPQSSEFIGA", "assay": "Inhibition of cell proliferation, CTG method, Ba/F3 EGFR D770_N771insSVD", "type": "cell-based", "conditions": "72 hours, read-out: Ba/F3 EGFR D770_N771insSVD IC50", "from_the_text": "as §1, §2, §3, §4, §5, §6, §7"}, "BT474 cells": {"system": "BT474 cells", "assay": "Inhibition of cell proliferation, CTG method, BT474", "type": "cell-based", "conditions": "Homo sapiens, BT-474, 72 hours, read-out: hBT474 IC50", "from_the_text": "as §1, §2, §3\n1. […]\nas §7"}, "[3]": {"system": "Ba/F3 ERBB2 A775_G776insYVMA", "assay": "Efficacy in nude mouse tumor-bearing model of Ba/F3 ERBB2 A775_G776insYVMA", "type": "in vivo, BALB/c nude mice", "conditions": "30 mg/kg, QD×15, PO; day 15", "protocol": "In this assay, some compounds of the application were orally administered to a nude mouse tumor-bearing model of Ba/F3 ERBB2 A775_G776insYVMA to study the effect of the compounds of the application on tumor growth.\nPreparation of the assay compound: an appropriate weight of the compound to be assayed was weighed, and completely dissolved in an appropriate volume of vehicle (DMSO). The mixture was vortexed or sonicated. Then an appropriate amount of Solutol was added and mixed well. Finally, sterilized drinking water was added and the mixture was mixed by stirring or vortexing to obtain a homogeneous solution or suspension.\nMethod: All the assays were authorized and agreed by the Animal Welfare Committee. Ba/F3 ERBB2 A775_G776insYVMA in a logarithmic growth period was inoculated subcutaneously into the right back of immunodeficient nude mice (BALB/c nude, female, 6-7 weeks of age, body weight 18±2 g) with 4×10^6 cells/rat. After the tumor grew to 150-200 mm^3, the animals were randomly divided into a treatment group and a control group. For the treatment group, a solution of each assay compound was given, and for the control group, a vehicle solution without the assay compound was given. Both of the treatment group and the control group were administered once a day for about 2 weeks. The dose of each assay article was 30 mg/kg (in terms of effective compound concentration), and the assay compounds were all prepared freshly for use. During the assay, the diameter of loaded tumors was measured twice a week, and the mice were weighed at the same time. The tumor volume (TV) was calculated by the formula: TV=½×a×b^2, where a and b denote length and width, respectively. Relative tumor volume (RTV) was calculated based on the measured results by the formula: RTV=Vt/V0, where V0 is the tumor volume measured at grouping and administration and Vt is the tumor volume at each measurement. The evaluation index of antitumor activity was the relative tumor proliferation rate T/C (%) calculated by the formula: T/C (%)=(TRTV/CRTV)×100%, TRTV: RTV of the administration group; CRTV: RTV of the control group. T and C denote the average tumor volume at a certain time point in the administration group and the control group, respectively."}}}
{"compound": "COc1c(NC(=O)/C=C/CN(C)C)ccc2ncnc(Nc3ccc(OCc4ccccn4)c(Cl)c3)c12", "note": "[Example 1, (E)-N-(4-((3-chloro-4-(pyridin-2-ylmethoxy)phenyl)amino)-5-methoxyquinazolin-6-yl)-4-(dimethylamino)but-2-enamide]", "values": [{"measurement": "IC50", "setting": "NCI-N87 cells", "value": "1 to 5", "unit": "nM"}, {"measurement": "GI50", "setting": "Ba/F3-EGFR-VIII cells", "value": "1 to 5", "unit": "nM"}, {"measurement": "IC50", "setting": "EGFR^WT kinase", "value": "< 10", "unit": "nM"}, {"measurement": "IC50", "setting": "HER2 kinase", "value": "< 10", "unit": "nM"}, {"measurement": "GI50", "setting": "[1]", "value": "1 to 5", "unit": "nM"}]}
{"compound": "COc1c(NC(=O)/C=C/CN(C)C)ccc2ncnc(Nc3ccc(OCc4cccc(F)c4)c(Cl)c3)c12", "note": "[Example 2, (E)-N-(4-((3-chloro-4-(3-fluorobenzyloxy)phenyl)amino)-5-methoxyquinazolin-6-yl)-4-(dimethylamino)but-2-enamide]", "values": [{"measurement": "IC50", "setting": "NCI-N87 cells", "value": "1 to 5", "unit": "nM"}, {"measurement": "IC50", "setting": "EGFR^WT kinase", "value": "< 10", "unit": "nM"}, {"measurement": "IC50", "setting": "HER2 kinase", "value": "< 10", "unit": "nM"}, {"measurement": "GI50", "setting": "[2]", "value": "10 to 100", "unit": "nM"}, {"measurement": "GI50", "setting": "[1]", "value": "1 to 5", "unit": "nM"}]}
{"compound": "CCOc1c(NC(=O)/C=C/[C@H]2CCCN2C)ccc2ncnc(Nc3ccc(OCc4ccccn4)c(Cl)c3)c12", "note": "[Example 5, (R,E)-N-(4-((3-chloro-4-(pyridin-2-ylmethoxy)phenyl)amino)-5-ethoxyquinazolin-6-yl)-3-(1-methylpyrrolidin-2-yl)acrylamide]", "values": [{"measurement": "IC50", "setting": "BT474 cells", "value": "10 to 100", "unit": "nM"}, {"measurement": "IC50", "setting": "NCI-N87 cells", "value": "1 to 5", "unit": "nM"}, {"measurement": "IC50", "setting": "EGFR^WT kinase", "value": "10 to 100", "unit": "nM"}, {"measurement": "IC50", "setting": "HER2 kinase", "value": "< 10", "unit": "nM"}, {"measurement": "GI50", "setting": "[1]", "value": "< 1", "unit": "nM"}]}
{"compound": "COCCOc1c(NC(=O)/C=C/[C@H]2CCCN2C)ccc2ncnc(Nc3ccc(OCc4ccccn4)c(Cl)c3)c12", "note": "[Example 8, (R,E)-N-(4-((3-chloro-4-(pyridin-2-ylmethoxy)phenyl)amino)-5-(2-methoxyethoxy)quinazolin-6-yl)-3-(1-methylpyrrolidin-2-yl)acrylamide]", "values": [{"measurement": "IC50", "setting": "EGFR^WT kinase", "value": "< 10", "unit": "nM"}, {"measurement": "IC50", "setting": "HER2 kinase", "value": "< 10", "unit": "nM"}, {"measurement": "GI50", "setting": "[2]", "value": "10 to 100", "unit": "nM"}, {"measurement": "T/C (%)", "setting": "[3]", "value": 5.83, "unit": "%"}, {"measurement": "GI50", "setting": "[1]", "value": "1 to 5", "unit": "nM"}]}
{"compound": "CN1CCC[C@@H]1/C=C/C(=O)Nc1ccc2ncnc(Nc3ccc(OCc4ccccn4)c(Cl)c3)c2c1OCC(C)(C)O", "note": "[Example 15, (R,E)-N-(4-((3-chloro-4-(pyridin-2-ylmethoxy)phenyl)amino)-5-(2-hydroxy-2-methylpropoxy)quinazolin-6-yl)-3-(1-methylpyrrolidin-2-yl)acrylamide]", "values": [{"measurement": "IC50", "setting": "EGFR^WT kinase", "value": "< 10", "unit": "nM"}, {"measurement": "IC50", "setting": "HER2 kinase", "value": "< 10", "unit": "nM"}, {"measurement": "GI50", "setting": "[2]", "value": "10 to 100", "unit": "nM"}, {"measurement": "GI50", "setting": "[1]", "value": "1 to 5", "unit": "nM"}]}
